The numbers were not newly measured in US20070178561A1, “Anti-hiv-1 compounds based upon a conserved amino acid sequence shared by gp160 and the human cd4 protein” (priority 2003, published 2007), which cites them from elsewhere.

The test system of one data set is HIV-1. The note with it: in vitro viral cell growth assays using p24.
For another data set, the target named is gp160 (Human immunodeficiency virus type 1 group M subtype B, UniProt P04578). To be noted: Jiang et al., Nature 365:113, 1993.

Turning to “TNWLWYIKLFIMIVGGLVGLRIVFAKKKC [683-707KKKC]”, in the data set with HIV-1, the “inhibition of viral growth (p24)” value is given as “does not inhibit viral growth”. Moreover, the “binding to gp160” value in the data set with gp160 is given as “bound gp160”.
